The results in this text go back to patent US10138232B2, “Naphthyridinedione derivatives” (NOVARTIS AG, priority 2014, dated 2018).

Molecules are shown by their SMILES.

In this assay the test system is CFTR-Y122X (GFP-CFTR-Y122X-Renilla construct) in Hek293 cell lines. In words: CFTR-Y122X assay (dual reporter readthrough, Renilla luminescence). Type of assay: cell-based. The conditions noted are these: Homo sapiens, compounds incubated 24 h, tested up to 100 μM; for AC50: nonsense mutation suppression in the CFTR-Y122X assay; for Emax: nonsense mutation suppression, 100% activity = 14 mM paromomycin, read-out: Amax. From the text: In particular, compounds of formula (I), (I′), (Ia), (Ia′) or (Ib) I act as nonsense mutation suppressors on frequent PTCs, e.g. on Y122X in the mRNA of the cystic fibrosis conductance regulator protein (CFTR). This can be determined in vitro, for example, using cell lines expressing GFP-CFTR-Y122X-Renilla constructs as described herein.
Activity of compounds of the present invention was examined in recombinant, dual reporter isogenic Hek293 cell lines (“CFTR-Y122X assay”). The engineered reporter constructs contained the 18 bp sequence strech corresponding to a common Y122X PTC mutation in CFTR class I mutant patients (see Sermet-Gaudelus, BMC Medicine, 2007, 5(5)). Instead of a tyrosine (Y) in position 122 of the CFTR protein a TGA stop codon interrupts the open reading frame (Y122X) of the corresponding mRNA. This TGA stop codon triplet (followed by the pyrimidine base cytosine) is permissive to aminoglycoside mediated translational readthrough which served as positive control for high throughput screening. A corresponding TAA stop codon variant and a wildtype non mutated construct was used for confirmation and counter screening. The CFTR sequence was sandwiched between an eGFP reporter, and a triple myc tag sequence fused to a full length Renilla reporter. All sequences, including an intron containing one positioned pre-eGFP (b-globin intron) were cloned in frame. The corresponding expression constructs were stably expressed in the isogenic HEK-R4 cell host (Invitrogen Incorp.) and selected by blasticidin resistance. The isogenic integration of the construct minimizes gene dose effects and improves assay reproducibility. Stably integrated single cell derived clones were selected and characterized for aminoglycoside mediated readthrough. […] Readthrough of Y122X accumulates an intracellular localized fusion protein approximately 65.5 kDa in size as controlled by western blot analysis and immunofluorescence using an anti-renilla antibody. The eGFP reporter pre-PTC mutation serves as visual control for genetic stability of the screening clones and minimizes protein degradation of small fusion protein amounts. In the assay, compound concentration was 10 μM. In miniaturized 1536 well format 2000 cells were dispensed in 4 μl/well and incubated for 24 h at 37° C., 5% CO2. 40 nl compounds were placed on the cells with control wells containing 1 ul Paramomycin and 14.4 mM final concentration. Compounds were incubated for 24 h. Renilla Glo substrate (2.5 ul) was added and plates were centrifuged and processed for luminescence measurement using various readers. Activity calculation was done using the equation: A1(%)=100*(S−NC)/(AC−NC) where AC, NC and S correspond to active controls (injection of Stimulation buffer=100% stimulation), neutral controls (buffer injection which Iloprost EC10) and screening samples (S). NC corresponds to 0% activity whereas AC is 100% activity (14 mM paromomycin). False positive artefacts were removed in confirmation and validation screening using the same assay format followed by counterscreening using the respective wildtype construct (w/o PTC mutation) cell model. Compounds were tested up to 100 μM compound concentration.

As for `O=c1c2ccccc2[nH]c2cc(C3CCC3)n(-c3ccccc3)c(=O)c12` [Example 1.1, 3-Cyclobutyl-2-phenylbenzo[b][1,6]naphthyridine-1,10(2H,5H)-dione], the AC50 was found to be 0.6 µM and the Emax was found to be 219%.
As for `Cn1c2ccccc2c(=O)c2c(=O)n(-c3ccccc3)c(C3CCC3)cc21` [Example 1.2, 3-Cyclobutyl-5-methyl-2-phenylbenzo[b][1,6]naphthyridine-1,10(2H,5H)-dione], the AC50 was found to be 1 µM and the Emax turned out to be 260%.
Taken in the same sequence, the figures for `CC(C)c1cc2[nH]c3ccccc3c(=O)c2c(=O)n1-c1ccccc1` [Example 1.3, 3-isopropyl-2-phenylbenzo[b][1,6]naphthyridine-1,10(2H,5H)-dione] were 1.1 µM and 281%.
Consider `CC(C)c1cc2c(c(=O)c3ccccc3n2C)c(=O)n1-c1ccccc1` [Example 1.4, 3-isopropyl-5-methyl-2-phenylbenzo[b][1,6]naphthyridine-1,10(2H,5H)-dione], for which the AC50 was 3.2 µM and the Emax is 324%.
Consider `CC(C)c1cc2[nH]c3ccc(F)cc3c(=O)c2c(=O)n1-c1ccccc1` [Example 1.5, 8-fluoro-3-isopropyl-2-phenylbenzo[b][1,6]naphthyridine-1,10(2H,5H)-dione], for which the activity was half-maximal at 1.8 µM (AC50) and the Emax came out at 358%.
The matching figures for `CC(C)c1cc2c(c(=O)c3cc(F)ccc3n2C)c(=O)n1-c1ccccc1` [Example 1.6, 8-fluoro-3-isopropyl-5-methyl-2-phenylbenzo[b][1,6]naphthyridine-1,10(2H,5H)-dione]: 7.7 µM and 507%.
Taken in the same sequence, the figures for `CC(C)c1cc2[nH]c3ccc(Cl)cc3c(=O)c2c(=O)n1-c1ccccc1` [Example 1.7, 8-chloro-3-isopropyl-2-phenylbenzo[b][1,6]naphthyridine-1,10(2H,5H)-dione] were 2.4 µM and 215%.
The matching figures for `CC(C)c1cc2c(c(=O)c3cc(Cl)ccc3n2C)c(=O)n1-c1ccccc1` [Example 1.8, 8-chloro-3-isopropyl-5-methyl-2-phenylbenzo[b][1,6]naphthyridine-1,10(2H,5H)-dione]: 14.8 µM and 307%.
In the case of `Cc1ccc2[nH]c3cc(C(C)C)n(-c4ccccc4)c(=O)c3c(=O)c2c1` [Example 1.9, 3-isopropyl-8-methyl-2-phenylbenzo[b][1,6]naphthyridine-1,10(2H,5H)-dione], half-maximal activity (AC50) was put at 1.2 µM and the Emax came out at 249%.
In the case of `Cc1ccc2c(c1)c(=O)c1c(=O)n(-c3ccccc3)c(C(C)C)cc1n2C` [Example 1.10, 3-isopropyl-5,8-dimethyl-2-phenylbenzo[b][1,6]naphthyridine-1,10(2H,5H)-dione], the AC50 was found to be 7.3 µM and the Emax came out at 409%.
The matching figures for `CC(C)c1cc2c(c(=O)c3cccc4c3n2CC4)c(=O)n1-c1ccccc1` [Example 1.11, 9-isopropyl-8-phenyl-1H-indolo[1,7-ab][1,6]naphthyridine-6,7(2H,8H)-dione]: 4 µM and 276%.
Taken in the same sequence, the figures for `CC(C)c1cc2[nH]c3sccc3c(=O)c2c(=O)n1-c1ccccc1` [Example 1.12, 7-isopropyl-6-phenylthieno[2,3-b][1,6]naphthyridine-4,5(6H,9H)-dione] were 19 µM and 248%.
Taken in the same sequence, the figures for `CC(C)c1cc2c(c(=O)c3ccsc3n2C)c(=O)n1-c1ccccc1` [Example 1.13, 7-isopropyl-9-methyl-6-phenylthieno[2,3-b][1,6]naphthyridine-4,5(6H,9H)-dione] were 8.6 µM and 445%.
On to `Cc1cc2c(=O)c3c(=O)n(-c4ccccc4)c(C(C)C)cc3[nH]c2s1` [Example 1.14, 7-isopropyl-2-methyl-6-phenylthieno[2,3-b][1,6]naphthyridine-4,5(6H,9H)-dione], for which the Emax was found to be 35%.
`Cc1cc2c(=O)c3c(=O)n(-c4ccccc4)c(C(C)C)cc3n(C)c2s1` [Example 1.15, 7-isopropyl-2,9-dimethyl-6-phenylthieno[2,3-b][1,6]naphthyridine-4,5(6H,9H)-dione]: the AC50 came to 5.5 µM and the Emax came to 224%.
Taken in the same sequence, the figures for `CC(C)c1cc2[nH]c3ccsc3c(=O)c2c(=O)n1-c1ccccc1` [Example 1.16, 6-isopropyl-7-phenylthieno[3,2-b][1,6]naphthyridine-8,9(4H,7H)-dione] were 1.6 µM and 344%.
Consider `CC(C)c1cc2c(c(=O)c3sccc3n2C)c(=O)n1-c1ccccc1` [Example 1.17, 6-isopropyl-4-methyl-7-phenylthieno[3,2-b][1,6]naphthyridine-8,9(4H,7H)-dione], for which the AC50 was 9.2 µM and the Emax is 430%.
The matching figures for `Cc1cc2[nH]c3cc(C(C)C)n(-c4ccccc4)c(=O)c3c(=O)c2s1` [Example 1.18, 6-isopropyl-2-methyl-7-phenylthieno[3,2-b][1,6]naphthyridine-8,9(4H,7H)-dione]: 3.9 µM and 240%.
The matching figures for `Cc1cc2c(s1)c(=O)c1c(=O)n(-c3ccccc3)c(C(C)C)cc1n2C` [Example 1.19, 6-isopropyl-2,4-dimethyl-7-phenylthieno[3,2-b][1,6]naphthyridine-8,9(4H,7H)-dione]: 12.8 µM and 253%.
Taken in the same sequence, the figures for `Cc1csc2c(=O)c3c(=O)n(-c4ccccc4)c(C(C)C)cc3[nH]c12` [Example 1.20, 6-isopropyl-3-methyl-7-phenylthieno[3,2-b][1,6]naphthyridine-8,9(4H,7H)-dione] were 2.5 µM and 183%.
Consider `Cc1csc2c(=O)c3c(=O)n(-c4ccccc4)c(C(C)C)cc3n(C)c12` [Example 1.21, 6-isopropyl-3,4-dimethyl-7-phenylthieno[3,2-b][1,6]naphthyridine-8,9(4H,7H)-dione], for which the AC50 is 5.4 µM and the Emax came to 379%.
Taken in the same sequence, the figures for `CC(C)c1cc2[nH]c3c(c(=O)c2c(=O)n1-c1ccccc1)CCCC3` [Example 1.22, 3-isopropyl-2-phenyl-6,7,8,9-tetrahydrobenzo[b][1,6]naphthyridine-1,10(2H,5H)-dione] were 7.2 µM and 413%.
In the case of `CC(C)c1cc2[nH]c3c(c(=O)c2c(=O)n1-c1ccccc1)CCC3` [Example 1.23, 3-isopropyl-2-phenyl-5,6,7,8-tetrahydro-1H-cyclopenta[b][1,6]naphthyridine-1,9(2H)-dione], the AC50 was determined as 5.2 µM and the Emax was found to be 414%.
The matching figures for `Cn1c2c(c(=O)c3c(=O)n(-c4ccccc4)c(C4CCC4)cc31)CCC2` [Example 1.24, 3-cyclobutyl-5-methyl-2-phenyl-5,6,7,8-tetrahydro-1H-cyclopenta[b][1,6]naphthyridine-1,9(2H)-dione]: 18.4 µM and 157%.
With `Cc1c(C)n(C)c2cc(C3CCC3)n(-c3ccccc3)c(=O)c2c1=O` [Example 1.25, 7-cyclobutyl-1,2,3-trimethyl-6-phenyl-1,6-naphthyridine-4,5(1 H,6H)-dione], the AC50 was 16.8 µM and the Emax came out at 87%.
The matching figures for `O=c1c2c([nH]c3cc(C4CCC4)n(-c4ccccc4)c(=O)c13)CCC2` [Example 1.26, 3-cyclobutyl-2-phenyl-5,6,7,8-tetrahydro-1H-cyclopenta[b][1,6]naphthyridine-1,9(2H)-dione]: 3.3 µM and 229%.
As to `Cc1[nH]c2cc(C3CCC3)n(-c3ccccc3)c(=O)c2c(=O)c1C` [Example 1.27, 7-cyclobutyl-2,3-dimethyl-6-phenyl-1,6-naphthyridine-4,5(1H,6H)-dione], half-maximal activity (AC50) was put at 3 µM and the Emax was 206%.
Taken in the same sequence, the figures for `Cn1c2c(c(=O)c3c(=O)n(-c4ccccc4)c(C4CCC4)cc31)CCCC2` [Example 1.28, 3-cyclobutyl-5-methyl-2-phenyl-6,7,8,9-tetrahydrobenzo[b][1,6]naphthyridine-1,10(2H,5H)-dione] were 12.8 µM and 257%.
